Data taken from PubChem BioAssay AID2060510 (Molecular Pharmacology Branch, DTP, NCI, 2025).

System: 439559-082-T-J2-PDC spheroids viability
Assay: Anticancer human tumor 439559-082-T-J2-PDC patient-derived colon adenocarcinoma cell line growth inhibition [GQUAD]
Conditions: for IC50: curve of first compound; for viability, T/C: stronger effect = lower value
In short: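 Tumor cells were grown as complex spheroids with HUVEC endothelial cells and mesenchymal stem cells as stroma. G-quadruplex stabilizers were combined with targeted agents over half-log dilutions from near the clinical Cmax, or from 10 microM.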

[1] = second compound 0.0316 µM, first compound 0.0316 µM
[2] = second compound 0.0316 µM, first compound 0.1 µM
[3] = second compound 0.0316 µM, first compound 0.316 µM
[4] = second compound 0.0316 µM, first compound 1 µM
[5] = second compound 0.0316 µM, first compound 3.16 µM
[6] = second compound 0.0316 µM, first compound 10 µM
[7] = second compound 0.1 µM, first compound 0.0316 µM
[8] = second compound 0.1 µM, first compound 0.1 µM
[9] = second compound 0.1 µM, first compound 0.316 µM
[10] = second compound 0.1 µM, first compound 1 µM
[11] = second compound 0.1 µM, first compound 3.16 µM
[12] = second compound 0.1 µM, first compound 10 µM
[13] = second compound 0.316 µM, first compound 0.0316 µM
[14] = second compound 0.316 µM, first compound 0.1 µM
[15] = second compound 0.316 µM, first compound 0.316 µM
[16] = second compound 0.316 µM, first compound 1 µM
[17] = second compound 0.316 µM, first compound 3.16 µM
[18] = second compound 0.316 µM, first compound 10 µM
[19] = second compound 1 µM, first compound 0.0316 µM
[20] = second compound 1 µM, first compound 0.1 µM
[21] = second compound 1 µM, first compound 0.316 µM
[22] = second compound 1 µM, first compound 1 µM
[23] = second compound 1 µM, first compound 3.16 µM
[24] = second compound 1 µM, first compound 10 µM
[25] = second compound 3.16 µM, first compound 0.0316 µM
[26] = second compound 3.16 µM, first compound 0.1 µM
[27] = second compound 3.16 µM, first compound 0.316 µM
[28] = second compound 3.16 µM, first compound 1 µM
[29] = second compound 3.16 µM, first compound 3.16 µM
[30] = second compound 3.16 µM, first compound 10 µM
[31] = second compound 10 µM, first compound 0.0316 µM
[32] = second compound 10 µM, first compound 0.1 µM
[33] = second compound 10 µM, first compound 0.316 µM
[34] = second compound 10 µM, first compound 1 µM
[35] = second compound 10 µM, first compound 3.16 µM
[36] = second compound 10 µM, first compound 10 µM
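Also: spheroids exposed to the agents for 7 days before readout.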
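For viability, T/C in this document: percent of luminescence signal in DMSO vehicle wells taken as 100% viability.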

C=CC(=O)N1CCN(c2nc(=O)n(-c3c(C)ccnc3C(C)C)c3nc(-c4c(O)cccc4F)c(F)cc23)C(C)C1 (stereo not drawn) + Cc1[nH]c2ccc(F)cc2c1-c1nc2c3cccnc3c3ncccc3c2[nH]1
IC50 (second compound 0.0316 µM): > 10 µM
IC50 (second compound 0.1 µM): > 10 µM
IC50 (second compound 0.316 µM): > 10 µM
IC50 (second compound 1 µM): > 10 µM
IC50 (second compound 3.16 µM): > 10 µM
IC50 (second compound 10 µM): > 10 µM
viability, T/C [1]: 106%
viability, T/C [2]: 92.6%
viability, T/C [3]: 99.3%
viability, T/C [4]: 103%
viability, T/C [5]: 109%
viability, T/C [6]: 101%
viability, T/C [7]: 103%
viability, T/C [8]: 95.5%
viability, T/C [9]: 101%
viability, T/C [10]: 95.4%
viability, T/C [11]: 112%
viability, T/C [12]: 96.5%
viability, T/C [13]: 108%
viability, T/C [14]: 95.1%
viability, T/C [15]: 102%
viability, T/C [16]: 103%
viability, T/C [17]: 104%
viability, T/C [18]: 97.8%
viability, T/C [19]: 89.3%
viability, T/C [20]: 103%
viability, T/C [21]: 93.4%
viability, T/C [22]: 93.8%
viability, T/C [23]: 100%
viability, T/C [24]: 88.7%
viability, T/C [25]: 89.1%
viability, T/C [26]: 90.5%
viability, T/C [27]: 85.6%
viability, T/C [28]: 92.4%
viability, T/C [29]: 92.1%
viability, T/C [30]: 80.2%
viability, T/C [31]: 64.6%
viability, T/C [32]: 73.1%
viability, T/C [33]: 84%
viability, T/C [34]: 76%
viability, T/C [35]: 79.3%
viability, T/C [36]: 80.3%

CC(C)n1c(=O)n(C)c2cnc3cc(F)c(-c4ccc(OCCCN5CCCCC5)nc4)cc3c21 + Cc1[nH]c2ccc(F)cc2c1-c1nc2c3cccnc3c3ncccc3c2[nH]1
IC50 (second compound 0.0316 µM): > 10 µM
IC50 (second compound 0.1 µM): > 10 µM
IC50 (second compound 0.316 µM): > 10 µM
IC50 (second compound 1 µM): > 10 µM
IC50 (second compound 3.16 µM): > 10 µM
IC50 (second compound 10 µM): > 10 µM
viability, T/C [1]: 112%
viability, T/C [2]: 94.7%
viability, T/C [3]: 126%
viability, T/C [4]: 125%
viability, T/C [5]: 130%
viability, T/C [6]: 102%
viability, T/C [7]: 116%
viability, T/C [8]: 110%
viability, T/C [9]: 117%
viability, T/C [10]: 123%
viability, T/C [11]: 139%
viability, T/C [12]: 100%
viability, T/C [13]: 98.7%
viability, T/C [14]: 104%
viability, T/C [15]: 127%
viability, T/C [16]: 122%
viability, T/C [17]: 128%
viability, T/C [18]: 96.4%
viability, T/C [19]: 106%
viability, T/C [20]: 103%
viability, T/C [21]: 118%
viability, T/C [22]: 125%
viability, T/C [23]: 113%
viability, T/C [24]: 113%
viability, T/C [25]: 90%
viability, T/C [26]: 88%
viability, T/C [27]: 107%
viability, T/C [28]: 102%
viability, T/C [29]: 89.9%
viability, T/C [30]: 66.7%
viability, T/C [31]: 85.1%
viability, T/C [32]: 83.4%
viability, T/C [33]: 98.8%
viability, T/C [34]: 98.8%
viability, T/C [35]: 99.6%
viability, T/C [36]: 84.8%

Cc1cccc(N(C)C(=O)C2C(O)CCN2c2nc(C)cc(C(F)(F)F)c2C#N)c1 (stereo not drawn) + Cc1[nH]c2ccc(F)cc2c1-c1nc2c3cccnc3c3ncccc3c2[nH]1
IC50 (second compound 0.0316 µM): > 10 µM
IC50 (second compound 0.1 µM): > 10 µM
IC50 (second compound 0.316 µM): > 10 µM
IC50 (second compound 1 µM): > 10 µM
IC50 (second compound 3.16 µM): > 10 µM
IC50 (second compound 10 µM): > 10 µM
viability, T/C [1]: 98.7%
viability, T/C [2]: 106%
viability, T/C [3]: 99.8%
viability, T/C [4]: 103%
viability, T/C [5]: 92.8%
viability, T/C [6]: 95.9%
viability, T/C [7]: 106%
viability, T/C [8]: 91.6%
viability, T/C [9]: 99.8%
viability, T/C [10]: 96.3%
viability, T/C [11]: 100%
viability, T/C [12]: 92.6%
viability, T/C [13]: 98.6%
viability, T/C [14]: 101%
viability, T/C [15]: 92.7%
viability, T/C [16]: 108%
viability, T/C [17]: 96.2%
viability, T/C [18]: 83.3%
viability, T/C [19]: 96.2%
viability, T/C [20]: 91.2%
viability, T/C [21]: 87.4%
viability, T/C [22]: 100%
viability, T/C [23]: 88.9%
viability, T/C [24]: 88.1%
viability, T/C [25]: 78.6%
viability, T/C [26]: 77.7%
viability, T/C [27]: 93.1%
viability, T/C [28]: 88.3%
viability, T/C [29]: 84.7%
viability, T/C [30]: 77%
viability, T/C [31]: 85.5%
viability, T/C [32]: 83.6%
viability, T/C [33]: 87.5%
viability, T/C [34]: 84.9%
viability, T/C [35]: 87%
viability, T/C [36]: 78.5%

Cn1ncnc1[C@H]1c2n[nH]c(=O)c3cc(F)cc(c23)N[C@@H]1c1ccc(F)cc1 + Cc1[nH]c2ccc(F)cc2c1-c1nc2c3cccnc3c3ncccc3c2[nH]1
IC50 (second compound 0.0316 µM): > 0.316 µM
IC50 (second compound 0.1 µM): > 0.316 µM
IC50 (second compound 0.316 µM): > 0.316 µM
IC50 (second compound 1 µM): > 0.316 µM
IC50 (second compound 3.16 µM): > 0.316 µM
IC50 (second compound 10 µM): > 0.316 µM
viability, T/C (second compound 0.0316 µM, first compound 0.000999 µM): 105%
viability, T/C (second compound 0.0316 µM, first compound 0.00316 µM): 93.7%
viability, T/C (second compound 0.0316 µM, first compound 0.00999 µM): 97.2%
viability, T/C [1]: 89.4%
viability, T/C (second compound 0.0316 µM, first compound 0.0999 µM): 90.4%
viability, T/C [3]: 92.1%
viability, T/C (second compound 0.1 µM, first compound 0.000999 µM): 103%
viability, T/C (second compound 0.1 µM, first compound 0.00316 µM): 105%
viability, T/C (second compound 0.1 µM, first compound 0.00999 µM): 93.6%
viability, T/C [7]: 93.5%
viability, T/C (second compound 0.1 µM, first compound 0.0999 µM): 90%
viability, T/C [9]: 88.9%
viability, T/C (second compound 0.316 µM, first compound 0.000999 µM): 113%
viability, T/C (second compound 0.316 µM, first compound 0.00316 µM): 99%
viability, T/C (second compound 0.316 µM, first compound 0.00999 µM): 99.6%
viability, T/C [13]: 93.4%
viability, T/C (second compound 0.316 µM, first compound 0.0999 µM): 97.2%
viability, T/C [15]: 85.8%
viability, T/C (second compound 1 µM, first compound 0.000999 µM): 87.3%
viability, T/C (second compound 1 µM, first compound 0.00316 µM): 98.5%
viability, T/C (second compound 1 µM, first compound 0.00999 µM): 92%
viability, T/C [19]: 94.1%
viability, T/C (second compound 1 µM, first compound 0.0999 µM): 99.2%
viability, T/C [21]: 84%
viability, T/C (second compound 3.16 µM, first compound 0.000999 µM): 79.6%
viability, T/C (second compound 3.16 µM, first compound 0.00316 µM): 87.5%
viability, T/C (second compound 3.16 µM, first compound 0.00999 µM): 77.3%
viability, T/C [25]: 85.7%
viability, T/C (second compound 3.16 µM, first compound 0.0999 µM): 81.8%
viability, T/C [27]: 76.2%
viability, T/C (second compound 10 µM, first compound 0.000999 µM): 85.7%
viability, T/C (second compound 10 µM, first compound 0.00316 µM): 86.7%
viability, T/C (second compound 10 µM, first compound 0.00999 µM): 72.3%
viability, T/C [31]: 85.8%
viability, T/C (second compound 10 µM, first compound 0.0999 µM): 82%
viability, T/C [33]: 61.8%
